Drawing on ChEMBL document CHEMBL3351485 (ACS Med Chem Lett, 2014), this text covers IC50 and inhibition for 6 molecules.

The target in assay [1] is T1, Sodium- and chloride-dependent GABA transporter 1 (Homo sapiens, UniProt P30531). The assay can be described thus: Inhibition of human GAT1 transfected in CHO cells assessed as [3H]GABA uptake after 20 mins by liquid scintillation counting analysis. The format is cell-based.
Target sequence in this assay (P30531 whole entry): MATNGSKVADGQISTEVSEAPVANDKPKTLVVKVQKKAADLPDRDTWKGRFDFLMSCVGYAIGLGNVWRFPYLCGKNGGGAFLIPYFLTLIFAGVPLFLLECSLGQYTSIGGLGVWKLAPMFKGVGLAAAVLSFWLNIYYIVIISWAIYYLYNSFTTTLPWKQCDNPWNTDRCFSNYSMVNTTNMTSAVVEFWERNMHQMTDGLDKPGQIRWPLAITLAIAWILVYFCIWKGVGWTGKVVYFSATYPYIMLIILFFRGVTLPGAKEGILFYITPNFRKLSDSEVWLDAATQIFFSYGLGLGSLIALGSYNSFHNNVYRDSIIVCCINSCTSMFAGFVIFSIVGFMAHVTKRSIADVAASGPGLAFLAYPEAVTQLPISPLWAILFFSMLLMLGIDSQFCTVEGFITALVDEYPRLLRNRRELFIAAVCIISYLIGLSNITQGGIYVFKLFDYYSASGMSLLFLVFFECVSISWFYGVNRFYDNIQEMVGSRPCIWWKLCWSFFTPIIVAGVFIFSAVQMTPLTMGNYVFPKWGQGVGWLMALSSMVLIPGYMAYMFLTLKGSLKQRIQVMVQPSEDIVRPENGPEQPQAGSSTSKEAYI
For assay [2], the target named is T2, Sodium- and chloride-dependent GABA transporter 2 (Homo sapiens, UniProt Q9NSD5).
T2 sequence (Q9NSD5 whole entry): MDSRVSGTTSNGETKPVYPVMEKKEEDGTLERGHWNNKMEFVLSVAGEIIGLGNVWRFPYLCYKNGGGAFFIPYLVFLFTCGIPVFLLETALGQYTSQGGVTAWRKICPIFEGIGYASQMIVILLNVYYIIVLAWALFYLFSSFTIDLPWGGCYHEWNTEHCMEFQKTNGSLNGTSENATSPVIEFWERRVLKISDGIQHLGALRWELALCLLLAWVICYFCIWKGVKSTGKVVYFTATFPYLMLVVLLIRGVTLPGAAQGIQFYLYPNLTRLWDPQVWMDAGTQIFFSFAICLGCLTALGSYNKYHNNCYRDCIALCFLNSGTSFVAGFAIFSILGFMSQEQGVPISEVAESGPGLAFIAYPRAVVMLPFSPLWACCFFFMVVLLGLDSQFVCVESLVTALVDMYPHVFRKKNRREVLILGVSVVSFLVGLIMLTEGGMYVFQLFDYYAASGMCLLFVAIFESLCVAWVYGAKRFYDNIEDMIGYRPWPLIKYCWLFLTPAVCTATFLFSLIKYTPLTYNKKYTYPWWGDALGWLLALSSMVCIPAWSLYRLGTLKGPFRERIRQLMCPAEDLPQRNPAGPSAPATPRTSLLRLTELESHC
The assay can be described thus: Inhibition of human GAT2 transfected in CHO cells assessed as [3H]GABA uptake after 20 mins by liquid scintillation counting analysis. In kind it is cell-based.

The target in assay [3] is T3, Sodium- and chloride-dependent GABA transporter 3 (Homo sapiens, UniProt P48066).
T3 sequence (P48066 whole entry): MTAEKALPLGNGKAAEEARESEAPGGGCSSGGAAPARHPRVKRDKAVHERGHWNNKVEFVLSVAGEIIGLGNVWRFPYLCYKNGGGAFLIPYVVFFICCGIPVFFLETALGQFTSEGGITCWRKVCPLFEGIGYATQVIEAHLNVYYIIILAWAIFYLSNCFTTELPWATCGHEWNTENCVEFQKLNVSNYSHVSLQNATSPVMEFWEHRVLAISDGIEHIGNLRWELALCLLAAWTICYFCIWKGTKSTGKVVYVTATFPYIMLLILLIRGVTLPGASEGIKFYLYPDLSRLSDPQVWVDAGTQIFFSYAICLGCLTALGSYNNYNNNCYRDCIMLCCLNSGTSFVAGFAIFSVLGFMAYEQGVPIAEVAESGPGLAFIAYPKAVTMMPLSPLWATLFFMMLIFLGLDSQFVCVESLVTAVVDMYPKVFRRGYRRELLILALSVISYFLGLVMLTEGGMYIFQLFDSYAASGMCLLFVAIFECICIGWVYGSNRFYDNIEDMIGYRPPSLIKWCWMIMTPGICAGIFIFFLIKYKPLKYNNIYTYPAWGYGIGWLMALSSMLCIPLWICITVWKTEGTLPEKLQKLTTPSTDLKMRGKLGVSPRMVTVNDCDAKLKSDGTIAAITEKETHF
In words: Inhibition of human GAT3 transfected in CHO cells assessed as [3H]GABA uptake after 20 mins by liquid scintillation counting analysis. The format is cell-based.

Assay [4] addresses T4, Sodium- and chloride-dependent betaine transporter (Homo sapiens, UniProt P48065).
T4 sequence (P48065 whole entry): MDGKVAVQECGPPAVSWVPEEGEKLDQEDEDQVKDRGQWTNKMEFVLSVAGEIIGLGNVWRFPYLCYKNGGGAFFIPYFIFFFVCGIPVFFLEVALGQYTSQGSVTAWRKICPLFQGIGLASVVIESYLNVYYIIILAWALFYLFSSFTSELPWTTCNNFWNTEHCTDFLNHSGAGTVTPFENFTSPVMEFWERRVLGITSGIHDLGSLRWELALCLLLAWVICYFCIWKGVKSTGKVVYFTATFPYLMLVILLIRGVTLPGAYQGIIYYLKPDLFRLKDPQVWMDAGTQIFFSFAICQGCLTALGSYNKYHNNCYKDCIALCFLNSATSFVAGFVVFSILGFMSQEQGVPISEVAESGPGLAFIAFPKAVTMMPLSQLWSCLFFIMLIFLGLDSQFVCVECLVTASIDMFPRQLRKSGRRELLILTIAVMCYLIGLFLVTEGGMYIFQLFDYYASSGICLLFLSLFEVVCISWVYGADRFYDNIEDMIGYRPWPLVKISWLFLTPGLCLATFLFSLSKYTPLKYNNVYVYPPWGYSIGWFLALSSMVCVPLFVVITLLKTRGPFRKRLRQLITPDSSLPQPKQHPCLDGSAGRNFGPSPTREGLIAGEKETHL
In words: Inhibition of human BGT1 transfected in CHO cells assessed as [3H]GABA uptake after 20 mins by liquid scintillation counting analysis. The format is cell-based.

For assay [5], the target named is T5, Sodium- and chloride-dependent betaine transporter (Homo sapiens) (UniProt P48065).
T5 sequence (whole entry): T4 sequence (P48065 whole entry)
The assay can be described thus: Inhibition of human BGT1 transfected in CHO cells assessed as [3H]GABA uptake at 100 uM after 20 mins by liquid scintillation counting analysis. In kind it is cell-based.

The target in assay [6] is T6, Sodium- and chloride-dependent GABA transporter 3 (Homo sapiens) (UniProt P48066).
T6 sequence (whole entry): T3 sequence (P48066 whole entry)
The following applies: CHO, 100 uM.
Description: Inhibition of human GAT3 transfected in CHO cells assessed as [3H]GABA uptake at 100 uM after 20 mins by liquid scintillation counting analysis

In assay [7] the target is T1, Sodium- and chloride-dependent GABA transporter 1. The assay can be described thus: Inhibition of human GAT1 transfected in CHO cells assessed as [3H]GABA uptake at 100 uM after 20 mins by liquid scintillation counting analysis. The format is cell-based.
Target sequence in this assay (P30531 whole entry, looked up): as the sequence (P30531 whole entry) above
In assay [8] the target is T7, Sodium- and chloride-dependent GABA transporter 2 (Homo sapiens) (UniProt Q9NSD5).
T7 sequence (whole entry): T2 sequence (Q9NSD5 whole entry)
In words: Inhibition of human GAT2 transfected in CHO cells assessed as [3H]GABA uptake at 100 uM after 20 mins by liquid scintillation counting analysis. In kind it is cell-based.

Calls of active or inactive are those of the source. The rule behind the calls is not given here.

`COc1ccc(C(OCCN2CCC[C@H](C(=O)O)C2)(c2ccc(OC)cc2)c2ccc(OC)cc2)cc1`: the IC50 (commonly the concentration at which inhibition is half-maximal) in assay [1] was greater than 100 µM.
For the molecule `N[C@H]1C[C@H]1CC(=O)O`, the IC50 is greater than 100 µM in assay [1], 36.9 µM in assay [2], 13.9 µM in assay [3] and 5.48 µM in assay [4]. The inhibition entry in assay [5] and in assay [6] was “Active” each time.
For `NCCC(=O)O` [BETA-ALANINE], the IC50 in assay [2] was greater than 100 µM.
As to `N[C@@]12CC[C@@H](C(=O)O)[C@@H]1C2`, the inhibition – broadly, the drop in the measured response relative to a control, in per cent – in assay [5] is 63.9%. Also, the inhibition result in assay [7], in assay [8] and in assay [6] was “inactive” in each case.
As to `COc1ccccc1C1(O)CCN(CCCn2c3ccccc3c3ccccc32)CC1`, the results for the IC50 in assay [1], in assay [2] and in assay [3] were 11.4 µM, 6.2 µM and 8.92 µM, respectively.
Regarding `N[C@@]12CC[C@H](C(=O)O)[C@@H]1C2`, the IC50 in assay [1] was greater than 100 µM; in assay [2] it was greater than 100 µM; in assay [3], 76.3 µM; in assay [4], 0.59 µM. For the same molecule, the inhibition in assay [5] is 97.6%; in assay [7] it was 12.2%; in assay [8], 29%; in assay [6] it was 48.2%.
